Measured values reported in PubChem BioAssay (NCI).
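48-hour exposure; five concentrations; linearly interpolated endpoints. At the TGI there is no net growth.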

What was measured:
Assay in all cases: DTP human tumour cell line panel, 48 h
U251 CNS = tested on: U251 CNS
HOP-92 NSCLC = tested on: HOP-92 NSCLC
PC-3 prostate = tested on: PC-3 prostate
SN12C renal = tested on: SN12C renal
IGROV1 ovarian = tested on: IGROV1 ovarian
NCI-H460 lung = tested on: NCI-H460 lung
LOX IMVI melanoma = tested on: LOX IMVI melanoma
HCT-116 colon = tested on: HCT-116 colon
OVCAR-5 ovarian = tested on: OVCAR-5 ovarian
CAKI-1 renal = tested on: CAKI-1 renal
MDA-MB-231 breast = tested on: MDA-MB-231 breast
TK-10 renal = tested on: TK-10 renal
UO-31 renal = tested on: UO-31 renal
SNB-75 CNS = tested on: SNB-75 CNS
EKVX NSCLC = tested on: EKVX NSCLC
NCI-H522 lung = tested on: NCI-H522 lung
SK-OV-3 ovarian = tested on: SK-OV-3 ovarian
SF-295 CNS = tested on: SF-295 CNS
SW-620 colon = tested on: SW-620 colon
HS 578T breast = tested on: HS 578T breast
OVCAR-4 ovarian = tested on: OVCAR-4 ovarian
DU-145 prostate = tested on: DU-145 prostate
BT-549 breast = tested on: BT-549 breast
NCI-H226 lung = tested on: NCI-H226 lung
MOLT-4 leukemia = tested on: MOLT-4 leukemia
ACHN renal = tested on: ACHN renal
SR leukemia = tested on: SR leukemia
OVCAR-3 ovarian = tested on: OVCAR-3 ovarian
HOP-62 NSCLC = tested on: HOP-62 NSCLC
HL-60(TB) leukemia = tested on: HL-60(TB) leukemia
NCI/ADR-RES ovarian = tested on: NCI/ADR-RES ovarian
T-47D breast = tested on: T-47D breast
786-0 renal = tested on: 786-0 renal
UACC-62 melanoma = tested on: UACC-62 melanoma
M14 melanoma = tested on: M14 melanoma
COLO 205 colon = tested on: COLO 205 colon
HT29 colon = tested on: HT29 colon
OVCAR-8 ovarian = tested on: OVCAR-8 ovarian
HCT-15 colon = tested on: HCT-15 colon
SF-539 CNS = tested on: SF-539 CNS
MCF7 breast = tested on: MCF7 breast
RXF 393 renal = tested on: RXF 393 renal
MDA-MB-435 = tested on: MDA-MB-435
A498 renal = tested on: A498 renal
MALME-3M melanoma = tested on: MALME-3M melanoma
KM12 colon = tested on: KM12 colon
SK-MEL-5 melanoma = tested on: SK-MEL-5 melanoma
SK-MEL-28 melanoma = tested on: SK-MEL-28 melanoma
UACC-257 melanoma = tested on: UACC-257 melanoma
A549 NSCLC = tested on: A549 NSCLC
SK-MEL-2 melanoma = tested on: SK-MEL-2 melanoma
MDA-N = tested on: MDA-N
CCRF-CEM leukemia = tested on: CCRF-CEM leukemia
RPMI-8226 leukemia = tested on: RPMI-8226 leukemia
SNB-19 CNS = tested on: SNB-19 CNS
SF-268 CNS = tested on: SF-268 CNS
K-562 leukemia = tested on: K-562 leukemia
NCI-H23 lung = tested on: NCI-H23 lung
HCC-2998 colon = tested on: HCC-2998 colon

In the case of `CCOC(=O)/C=C(/OCC)[C@@H]1C(C(=O)c2ccc(Cl)cc2)[C@@H]1/C(=C\C(=O)OCC)OCC` (stereo not given in full), the TGI (U251 CNS) is reported as greater than 100 µM, the TGI (HOP-92 NSCLC) is reported as 17.9 µM and the TGI (PC-3 prostate) is reported as greater than 100 µM. The TGI (SN12C renal) was greater than 100 µM, the TGI (IGROV1 ovarian) was greater than 100 µM and the TGI (NCI-H460 lung) was greater than 100 µM. It also gave a TGI (LOX IMVI melanoma) greater than 100 µM, a TGI (HCT-116 colon) greater than 100 µM and a TGI (OVCAR-5 ovarian) greater than 100 µM. For the same molecule, the TGI (CAKI-1 renal) was greater than 100 µM, the TGI (MDA-MB-231 breast) was greater than 100 µM and the TGI (TK-10 renal) was 43.6 µM. For the same molecule, the TGI (UO-31 renal) was greater than 91 µM, the TGI (SNB-75 CNS) was greater than 100 µM and the TGI (EKVX NSCLC) was greater than 100 µM. It also gave a TGI (NCI-H522 lung) greater than 59.2 µM, a TGI (SK-OV-3 ovarian) greater than 100 µM and a TGI (SF-295 CNS) greater than 88.9 µM. The TGI (SW-620 colon) was greater than 100 µM, the TGI (HS 578T breast) was greater than 100 µM and the TGI (OVCAR-4 ovarian) was greater than 100 µM. The TGI (DU-145 prostate) was greater than 100 µM, the TGI (BT-549 breast) was greater than 100 µM and the TGI (NCI-H226 lung) was greater than 100 µM. It also gave a TGI (MOLT-4 leukemia) greater than 24.4 µM, a TGI (ACHN renal) greater than 69.1 µM and a TGI (SR leukemia) greater than 100 µM. The TGI (OVCAR-3 ovarian) was greater than 100 µM, the TGI (HOP-62 NSCLC) was greater than 100 µM and the TGI (HL-60(TB) leukemia) was 37.5 µM. The TGI (NCI/ADR-RES ovarian) was greater than 34 µM, the TGI (T-47D breast) was greater than 100 µM and the TGI (786-0 renal) was greater than 100 µM. For the same molecule, the TGI (UACC-62 melanoma) was greater than 100 µM, the TGI (M14 melanoma) was greater than 100 µM and the TGI (COLO 205 colon) was 27.4 µM. For the same molecule, the TGI (HT29 colon) was greater than 100 µM, the TGI (OVCAR-8 ovarian) was greater than 100 µM and the TGI (HCT-15 colon) was greater than 100 µM. It also gave a TGI (SF-539 CNS) greater than 100 µM, a TGI (MCF7 breast) greater than 100 µM and a TGI (RXF 393 renal) greater than 78.5 µM. For the same molecule, the TGI (MDA-MB-435) was greater than 83.8 µM, the TGI (A498 renal) was greater than 100 µM and the TGI (MALME-3M melanoma) was greater than 100 µM. The TGI (KM12 colon) was greater than 51.3 µM, the TGI (SK-MEL-5 melanoma) was greater than 59.9 µM and the TGI (SK-MEL-28 melanoma) was greater than 100 µM. For the same molecule, the TGI (UACC-257 melanoma) was greater than 100 µM, the TGI (A549 NSCLC) was greater than 100 µM and the TGI (SK-MEL-2 melanoma) was greater than 100 µM. The TGI (MDA-N) was greater than 100 µM, the TGI (CCRF-CEM leukemia) was greater than 100 µM and the TGI (RPMI-8226 leukemia) was greater than 23.1 µM. It also gave a TGI (SNB-19 CNS) greater than 100 µM, a TGI (SF-268 CNS) greater than 100 µM and a TGI (K-562 leukemia) greater than 22.3 µM. It also gave a TGI (NCI-H23 lung) of 81.8 µM.
Molecule `O=C(CCCCCCCCC(=O)N1C(=O)CC(=O)N(c2ccc(Cl)cc2)C1=S)N1C(=O)CC(=O)N(c2ccc(Cl)cc2)C1=S` has a TGI (U251 CNS) greater than 100 µM, a TGI (HOP-92 NSCLC) greater than 100 µM and a TGI (PC-3 prostate) greater than 100 µM. For the same molecule, the TGI (SN12C renal) was greater than 100 µM, the TGI (NCI-H460 lung) was greater than 100 µM and the TGI (LOX IMVI melanoma) was greater than 100 µM. It also gave a TGI (HCT-116 colon) greater than 100 µM, a TGI (OVCAR-5 ovarian) greater than 100 µM and a TGI (CAKI-1 renal) greater than 100 µM. For the same molecule, the TGI (MDA-MB-231 breast) was greater than 100 µM, the TGI (TK-10 renal) was greater than 100 µM and the TGI (UO-31 renal) was greater than 100 µM. The TGI (SNB-75 CNS) was greater than 100 µM, the TGI (EKVX NSCLC) was greater than 100 µM and the TGI (NCI-H522 lung) was greater than 100 µM. The TGI (SK-OV-3 ovarian) was greater than 100 µM, the TGI (SF-295 CNS) was greater than 100 µM and the TGI (SW-620 colon) was greater than 100 µM. For the same molecule, the TGI (HS 578T breast) was greater than 100 µM, the TGI (OVCAR-4 ovarian) was greater than 100 µM and the TGI (DU-145 prostate) was greater than 100 µM. It also gave a TGI (BT-549 breast) greater than 100 µM, a TGI (NCI-H226 lung) greater than 100 µM and a TGI (MOLT-4 leukemia) of 75.6 µM. The TGI (ACHN renal) was greater than 100 µM, the TGI (SR leukemia) was 83.7 µM and the TGI (OVCAR-3 ovarian) was greater than 100 µM. For the same molecule, the TGI (HOP-62 NSCLC) was greater than 100 µM, the TGI (NCI/ADR-RES ovarian) was greater than 100 µM and the TGI (T-47D breast) was greater than 100 µM. It also gave a TGI (786-0 renal) greater than 100 µM, a TGI (UACC-62 melanoma) greater than 100 µM and a TGI (M14 melanoma) greater than 100 µM. It also gave a TGI (COLO 205 colon) greater than 100 µM, a TGI (HT29 colon) greater than 100 µM and a TGI (OVCAR-8 ovarian) greater than 100 µM. For the same molecule, the TGI (HCT-15 colon) was greater than 100 µM, the TGI (SF-539 CNS) was greater than 100 µM and the TGI (MCF7 breast) was greater than 100 µM. It also gave a TGI (RXF 393 renal) greater than 100 µM, a TGI (HCC-2998 colon) greater than 100 µM and a TGI (MDA-MB-435) greater than 100 µM. The TGI (A498 renal) was greater than 100 µM, the TGI (MALME-3M melanoma) was greater than 100 µM and the TGI (KM12 colon) was greater than 100 µM. For the same molecule, the TGI (SK-MEL-5 melanoma) was greater than 100 µM, the TGI (SK-MEL-28 melanoma) was greater than 100 µM and the TGI (UACC-257 melanoma) was greater than 100 µM. It also gave a TGI (A549 NSCLC) greater than 100 µM, a TGI (SK-MEL-2 melanoma) greater than 100 µM and a TGI (MDA-N) greater than 100 µM. The TGI (CCRF-CEM leukemia) was 87.1 µM, the TGI (RPMI-8226 leukemia) was greater than 100 µM and the TGI (SNB-19 CNS) was greater than 100 µM. The TGI (SF-268 CNS) was greater than 100 µM, the TGI (K-562 leukemia) was greater than 100 µM and the TGI (NCI-H23 lung) was greater than 100 µM.
